Consider two compounds from ChEMBL document CHEMBL4622877, “Aspeterreurone A, a Cytotoxic Dihydrobenzofuran-Phenyl Acrylate Hybrid from the Deep-Sea-Derived Fungus Aspergillus terreus CC-S06-18” (J Nat Prod, 2020).

Active and inactive are the calls of the source. No cut-off for these calls is given here.

For one data set, the system named is AGS. The data set is described as follows: Cytotoxicity against human AGS cells after 72 hrs by CCK8 assay. In kind it is functional, cell-based.
The test system of a further data set is GES1. Kind of data set: Cytotoxicity against human GES-1 cells after 72 hrs by CCK8 assay. In kind it is cell-based. As to conditions: GES1, 72 h.
The test system of the next data set is BGC-823. Kind of data set: Cytotoxicity against human BGC823 cells after 72 hrs by CCK8 assay. In kind it is functional, cell-based. As to conditions: for IC50: BGC-823, 72 h.
The subject of another data set is HGC-27. Kind of data set: Cytotoxicity against human HGC27 cells after 72 hrs by CCK8 assay. It counts as functional, cell-based. As to conditions: for IC50: HGC-27, 72 h.
For data set [1], the system named is MGC-803. Kind of data set: Cytotoxicity against human MGC803 cells after 72 hrs by CCK8 assay. As to conditions: for IC50: MGC-803, 72 h. It counts as functional, cell-based.
Data set [2] relates to MGC-803. Kind of data set: Induction of cell cycle arrest in human MGC803 cells assessed as accumulation of cells at G2/M phase at 5 uM incubated for 24 hrs propidium iodide-A staining-based flow cytometric analysis (reference value: 31%). In kind it is functional.
Data set [3] addresses Signal transducer and activator of transcription 3 (Homo sapiens) (UniProt P40763). The data set is described as follows: Inhibition of STAT3 phosphorylation in human MGC803 cells at 2 to 20 uM incubated for 24 hrs by Western blot analysis. As to conditions: MGC-803. It counts as cell-based.
The subject of data set [4] is MGC-803. The data set is described as follows: Induction of apoptosis in human MGC803 cells assessed as early apoptotic cells at 20 uM incubated for 48 hrs by Annexin V-FITC/propidium iodide staining-based flow cytometric analysis (reference value: 1.83%). In kind it is functional.
In data set [5] the test system is MGC-803. The data set is described as follows: Induction of cell cycle arrest in human MGC803 cells assessed as accumulation of cells at S phase at 2 uM incubated for 24 hrs propidium iodide-A staining-based flow cytometric analysis (reference value: 17%). It counts as functional.
Data set [6] relates to MGC-803. The data set is described as follows: Induction of apoptosis in human MGC803 cells assessed as viable cells at 10 uM incubated for 48 hrs by Annexin V-FITC/propidium iodide staining-based flow cytometric analysis (reference value: 97.15%). In kind it is functional. The note with it: MGC-803, 48 h, read-out: Activity.
For data set [7], the system named is MGC-803. Kind of data set: Induction of apoptosis in human MGC803 cells assessed as necrotic cells at 20 uM incubated for 48 hrs by Annexin V-FITC/propidium iodide staining-based flow cytometric analysis (reference value: 0.18%). It counts as functional.
For data set [8], the system named is MGC-803. Kind of data set: Effect on total STAT3 expression in human MGC803 cells at 20 uM incubated for 24 hrs by Western blot analysis. In kind it is cell-based. As to conditions: mgc-803, 24 h.
Data set [9] relates to MGC-803. The data set is described as follows: Induction of cell cycle arrest in human MGC803 cells assessed as accumulation of cells at G1 phase at 5 uM incubated for 24 hrs propidium iodide-A staining-based flow cytometric analysis (reference value: 52%). It counts as functional.
Data set [10] relates to MGC-803. Kind of data set: Induction of cell cycle arrest in human MGC803 cells assessed as accumulation of cells at S phase at 5 uM incubated for 24 hrs propidium iodide-A staining-based flow cytometric analysis (reference value: 17%). In kind it is functional.
In data set [11] the test system is MGC-803. Kind of data set: Induction of apoptosis in human MGC803 cells assessed as viable cells at 20 uM incubated for 48 hrs by Annexin V-FITC/propidium iodide staining-based flow cytometric analysis (reference value: 97.15%). As to conditions: MGC-803, 48 h, read-out: Activity. In kind it is functional.
The test system of data set [12] is MGC-803. Kind of data set: Induction of apoptosis in human MGC803 cells assessed as early apoptotic cells at 5 uM incubated for 48 hrs by Annexin V-FITC/propidium iodide staining-based flow cytometric analysis (reference value: 1.83%). In kind it is functional.
In data set [13] the test system is MGC-803. Kind of data set: Induction of cell cycle arrest in human MGC803 cells assessed as accumulation of cells at G1 phase at 2 uM incubated for 24 hrs propidium iodide-A staining-based flow cytometric analysis (reference value: 52%). It counts as functional.
In data set [14] the test system is MGC-803. Kind of data set: Induction of apoptosis in human MGC803 cells assessed as late apoptotic cells at 2 uM incubated for 48 hrs by Annexin V-FITC/propidium iodide staining-based flow cytometric analysis (reference value: 0.84%). It counts as functional.
Data set [15] relates to MGC-803. Kind of data set: Induction of cell cycle arrest in human MGC803 cells assessed as accumulation of cells at G2/M phase at 20 uM incubated for 24 hrs propidium iodide-A staining-based flow cytometric analysis (reference value: 31%). In kind it is functional.
Data set [16] relates to MGC-803. Kind of data set: Induction of apoptosis in human MGC803 cells assessed as necrotic cells at 5 uM incubated for 48 hrs by Annexin V-FITC/propidium iodide staining-based flow cytometric analysis (reference value: 0.18%). It counts as functional.
The test system of data set [17] is MGC-803. The data set is described as follows: Induction of apoptosis in human MGC803 cells assessed as viable cells at 5 uM incubated for 48 hrs by Annexin V-FITC/propidium iodide staining-based flow cytometric analysis (reference value: 97.15%). It counts as functional. As to conditions: MGC-803, 48 h, read-out: Activity.
Data set [18] deals with MGC-803. Kind of data set: Induction of cell cycle arrest in human MGC803 cells assessed as accumulation of cells at G1 phase at 10 uM incubated for 24 hrs propidium iodide-A staining-based flow cytometric analysis (reference value: 52%). It counts as functional.
In data set [19] the test system is MGC-803. Kind of data set: Induction of apoptosis in human MGC803 cells assessed as early apoptotic cells at 10 uM incubated for 48 hrs by Annexin V-FITC/propidium iodide staining-based flow cytometric analysis (reference value: 1.83%). In kind it is functional.
For data set [20], the system named is MGC-803. The data set is described as follows: Induction of cell cycle arrest in human MGC803 cells assessed as accumulation of cells at G1 phase at 20 uM incubated for 24 hrs propidium iodide-A staining-based flow cytometric analysis (reference value: 52%). In kind it is functional.
Data set [21] concerns MGC-803. The data set is described as follows: Induction of apoptosis in human MGC803 cells assessed as late apoptotic cells at 10 uM incubated for 48 hrs by Annexin V-FITC/propidium iodide staining-based flow cytometric analysis (reference value: 0.84%). In kind it is functional.
Data set [22] relates to MGC-803. Kind of data set: Induction of apoptosis in human MGC803 cells assessed as viable cells at 2 uM incubated for 48 hrs by Annexin V-FITC/propidium iodide staining-based flow cytometric analysis (reference value: 97.15%). It counts as functional. The note with it: MGC-803, 48 h, read-out: Activity.
Data set [23] relates to MGC-803. Kind of data set: Induction of apoptosis in human MGC803 cells assessed as necrotic cells at 2 uM incubated for 48 hrs by Annexin V-FITC/propidium iodide staining-based flow cytometric analysis (reference value: 0.18%). In kind it is functional.
Data set [24] has as its system MGC-803. Kind of data set: Induction of apoptosis in human MGC803 cells assessed as PARP cleavage at 20 uM incubated for 24 hrs by Western blot analysis. It counts as functional, cell-based.
Data set [25] concerns MGC-803. Kind of data set: Induction of cell cycle arrest in human MGC803 cells assessed as accumulation of cells at G2/M phase at 2 uM incubated for 24 hrs propidium iodide-A staining-based flow cytometric analysis (reference value: 31%). It counts as functional.
Data set [26] has as its system MGC-803. The data set is described as follows: Induction of cell cycle arrest in human MGC803 cells assessed as accumulation of cells at S phase at 20 uM incubated for 24 hrs propidium iodide-A staining-based flow cytometric analysis (reference value: 17%). It counts as functional.
For data set [27], the system named is MGC-803. The data set is described as follows: Induction of apoptosis in human MGC803 cells assessed as late apoptotic cells at 20 uM incubated for 48 hrs by Annexin V-FITC/propidium iodide staining-based flow cytometric analysis (reference value: 0.84%). In kind it is functional.
Data set [28] deals with MGC-803. Kind of data set: Induction of apoptosis in human MGC803 cells assessed as early apoptotic cells at 2 uM incubated for 48 hrs by Annexin V-FITC/propidium iodide staining-based flow cytometric analysis (reference value: 1.83%). In kind it is functional.
The test system of data set [29] is MGC-803. Kind of data set: Induction of apoptosis in human MGC803 cells assessed as late apoptotic cells at 5 uM incubated for 48 hrs by Annexin V-FITC/propidium iodide staining-based flow cytometric analysis (reference value: 0.84%). In kind it is functional.
Data set [30] has as its system MGC-803. The data set is described as follows: Induction of apoptosis in human MGC803 cells assessed as necrotic cells at 10 uM incubated for 48 hrs by Annexin V-FITC/propidium iodide staining-based flow cytometric analysis (reference value: 0.18%). In kind it is functional.
The test system of data set [31] is MGC-803. The data set is described as follows: Induction of cell cycle arrest in human MGC803 cells assessed as accumulation of cells at G2/M phase at 10 uM incubated for 24 hrs propidium iodide-A staining-based flow cytometric analysis (reference value: 31%). It counts as functional.
Data set [32] has as its system MGC-803. Kind of data set: Induction of cell cycle arrest in human MGC803 cells assessed as accumulation of cells at S phase at 10 uM incubated for 24 hrs propidium iodide-A staining-based flow cytometric analysis (reference value: 17%). In kind it is functional.

Sequence of Signal transducer and activator of transcription 3 (Homo sapiens) (P40763 whole entry): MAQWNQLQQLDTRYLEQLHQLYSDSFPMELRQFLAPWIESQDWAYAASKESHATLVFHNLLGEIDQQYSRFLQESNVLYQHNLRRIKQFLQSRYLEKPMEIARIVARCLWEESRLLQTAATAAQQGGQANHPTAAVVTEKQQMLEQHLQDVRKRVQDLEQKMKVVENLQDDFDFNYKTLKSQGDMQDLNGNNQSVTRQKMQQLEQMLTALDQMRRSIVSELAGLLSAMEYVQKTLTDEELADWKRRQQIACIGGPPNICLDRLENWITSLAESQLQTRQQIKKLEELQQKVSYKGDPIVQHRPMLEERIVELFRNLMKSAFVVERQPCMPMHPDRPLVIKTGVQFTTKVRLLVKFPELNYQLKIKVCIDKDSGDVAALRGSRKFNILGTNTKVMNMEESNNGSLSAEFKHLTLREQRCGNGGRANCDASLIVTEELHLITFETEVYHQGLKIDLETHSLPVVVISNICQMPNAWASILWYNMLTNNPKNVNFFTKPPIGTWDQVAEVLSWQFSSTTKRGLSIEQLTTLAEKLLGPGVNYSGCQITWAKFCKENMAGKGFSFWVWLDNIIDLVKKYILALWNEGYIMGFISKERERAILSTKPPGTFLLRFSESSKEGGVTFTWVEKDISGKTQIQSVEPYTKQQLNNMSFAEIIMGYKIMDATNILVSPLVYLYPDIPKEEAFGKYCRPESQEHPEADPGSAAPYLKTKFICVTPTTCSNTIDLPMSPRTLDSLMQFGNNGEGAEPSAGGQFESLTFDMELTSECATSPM

As to `CC(=O)O[C@H]1C(=O)[C@@]2(C)[C@H]([C@H](OC(=O)c3ccccc3)[C@]3(O)C[C@H](OC(=O)[C@H](O)[C@@H](NC(=O)c4ccccc4)c4ccccc4)C(C)=C1C3(C)C)[C@]1(OC(C)=O)CO[C@@H]1C[C@@H]2O` [PACLITAXEL], the half-inhibitory concentration (IC50) was 0.053 µM in the data set with AGS; 0.0079 µM in the data set on GES1; 0.0013 µM in the data set with BGC-823; 8.4 nM in the data set with HGC-27; 0.0038 µM in the data set with MGC-803 [1].
For `Cc1c2c(c(O)c3c1[C@H](C)[C@@H](C)O3)/C(=C/c1ccccc1)C(=O)O2`, the Activity in the data set on MGC-803 [2] is listed as 36%; in the data set with MGC-803 [4], 7.57%; in the data set on MGC-803 [5], 16%; in the data set with MGC-803 [7], 1.55%; in the data set with MGC-803 [8], “Toxic”; in the data set with MGC-803 [9], 48%. Moreover, the Activity with MGC-803 [10] was 16%; in the data set on MGC-803 [12] it was 0.78%; with AGS it was “Dose-dependent effect”; in the data set with MGC-803 [13], 50%; in the data set on MGC-803 [14], 0.34%; in the data set with MGC-803 [15], 24%. The Activity result with BGC-823 is “Dose-dependent effect”; in the data set on HGC-27, “Dose-dependent effect”; with MGC-803 [16], 0.26%; in the data set on MGC-803 [18], 49%; in the data set with MGC-803 [19], 1.95%; in the data set with MGC-803 [20], 53%. Further, the Activity was 0.39% in the data set with MGC-803 [21]; 0.54% with MGC-803 [23]; 34% in the data set with MGC-803 [25]; 23% in the data set on MGC-803 [26]; 1.51% with MGC-803 [27]; 0.72% with MGC-803 [28]. Further, the Activity is 0.24% in the data set on MGC-803 [29]; 0.59% with MGC-803 [30]; 33% in the data set with MGC-803 [31]; 18% in the data set on MGC-803 [32]; “Dose-dependent effect” in the data set with MGC-803 [1]. Moreover, the inhibition result in data set [3] is “Active”. In addition, in the data set on MGC-803 [6], the viability at 10 µM is 97.1%. For the same compound, the viability at 20 µM with MGC-803 [11] turned out to be 89.4%. For the same compound, the IC50 turned out to be 8.2 µM in the data set on AGS; 29 µM in the data set with GES1; 6.2 µM in the data set on BGC-823; 3400 nM in the data set with HGC-27; 7 µM in the data set on MGC-803 [1]. Also, the viability at 5 µM in the data set with MGC-803 [17] turned out to be 98.7%. For the same compound, the viability at 2 µM with MGC-803 [22] was determined as 98.4%. The outcome in the data set on MGC-803 [24] was Active.
